Key:
[1] = system: bacterial growth in kaolin slurry; test: Kaolin slurry preservation test: biocide-dosed 65% solids slurry plated on standard method agar, samples as treated; assay type: cell-based, bacteria
Experimental: (§1) In the comparative testing, dry kaolin was mixed with water to achieve a 65% solid slurry material. This material contained no biocide. The slurry was then split into 200 gram aliquots and dosed with different biocides at different concentration as shown in Tables 1-3. All samples were kept at 50° C. until the end of the testing, which was up to 28 days.
A number of different and known biocides were used in the study and they include glutaraldehyde (glute), 1,2 benzithiazolin-3-one (BIT), tetrahydro-3-5-methyl-2H-1,3,5-thiadizine-2-thione (thione), isothiazoline (ISO), bronopol (BNPD) or orthophenyl phenate (OPP). For shorthand purposes, the study refers to the tradename of the biocide, which is found in the above listing of the biocides. Metam sodium is designated as SMDC and MDTCMA is used without change
(§2) The protocol for the testing of each sample is as follows: • 1) dosed with a recorded level of biocide; • 2) mixed for 24 hours contact time and plated using standard method agar for bacterial growth; • 3) remixed daily for 1 hour and retested for bacterial growth at Day 3; • 4) remixed daily for 1 hour and retested for bacterial growth at Day 7; • 5) remixed daily for 1 hour and retested for bacterial growth at Day 14; • 6) on day 20, samples were split into two containers: one container was inoculated (or challenged) with ˜10^5 cfu/ml bacteria, the other was left “as treated”, the challenge material was obtained from a contaminated kaolin product and is assumed to be representative of the types of bacteria that are seen in the kaolin industry, and the two sets of samples were prepared for Day 21 testing; • 7) both sets were remixed daily for 1 hour and retested for bacterial growth at Day 21; and • 8) both sets remixed daily for 1 hour and retested for bacterial growth at Day 28.
Different contact times were used to see how quickly the bacterial population was effected by the biocide.

[2] = system: bacteria from a contaminated kaolin product; test: Kaolin slurry preservation test, challenge: on day 20 samples inoculated with ~10^5 cfu/ml bacteria from a contaminated kaolin product; assay type: cell-based
Experimental: as §1, §2

CN1CSC(=S)N(C)C1 [24% Thione, tetrahydro-3,5-dimethyl-2H-1,3,5-thiadiazine-2-thione, reference compound]
Log Red, contact time 1 day ([1]; 500 ppm, Table 2): 0 | Log Red, contact time 3 day ([1]; 500 ppm, Table 2): 3 | Log Red, contact time 7 day ([1]; 500 ppm, Table 2): 4 | Log Red, contact time 14 day ([1]; 500 ppm, Table 2): 4 | Log Red, contact time 21 day ([1]; 500 ppm, Table 2): 5 | Log Red, contact time 28 day ([1]; 500 ppm, Table 2): 5 | cfu/mL, contact time 1 day ([1]; 500 ppm, Table 2): 13,340,000 cfu/mL | cfu/mL, contact time 3 day ([1]; 500 ppm, Table 2): 11,000 cfu/mL | cfu/mL, contact time 7 day ([1]; 500 ppm, Table 2): 5,600 cfu/mL | cfu/mL, contact time 14 day ([1]; 500 ppm, Table 2): 2,100 cfu/mL | cfu/mL, contact time 21 day ([1]; 500 ppm, Table 2): 1,100 cfu/mL | cfu/mL, contact time 28 day ([1]; 500 ppm, Table 2): 800 cfu/mL | Log Red, contact time 1 day ([1]; 500 ppm, Table 3): 2 | Log Red, contact time 3 day ([1]; 500 ppm, Table 3): 2 | Log Red, contact time 7 day ([1]; 500 ppm, Table 3): 2 | Log Red, contact time 14 day ([1]; 500 ppm, Table 3): 3 | Log Red, contact time 21 day ([1]; 500 ppm, Table 3): 2 | Log Red, contact time 28 day ([1]; 500 ppm, Table 3): 2 | cfu/mL, contact time 1 day ([1]; 500 ppm, Table 3): 3,300 cfu/mL | cfu/mL, contact time 3 day ([1]; 500 ppm, Table 3): 100 cfu/mL | cfu/mL, contact time 7 day ([1]; 500 ppm, Table 3): 100 cfu/mL | cfu/mL, contact time 14 day ([1]; 500 ppm, Table 3): 100 cfu/mL | cfu/mL, contact time 21 day ([1]; 500 ppm, Table 3): 100 cfu/mL | cfu/mL, contact time 28 day ([1]; 500 ppm, Table 3): 100 cfu/mL | Log Red, contact time 1 day ([1]; 1000 ppm, Table 2): 1 | Log Red, contact time 3 day ([1]; 1000 ppm, Table 2): 4 | Log Red, contact time 7 day ([1]; 1000 ppm, Table 2): 4 | Log Red, contact time 14 day ([1]; 1000 ppm, Table 2): 5 | Log Red, contact time 21 day ([1]; 1000 ppm, Table 2): 5 | Log Red, contact time 28 day ([1]; 1000 ppm, Table 2): 5 | cfu/mL, contact time 1 day ([1]; 1000 ppm, Table 2): 6,670,000 cfu/mL | cfu/mL, contact time 3 day ([1]; 1000 ppm, Table 2): 6,800 cfu/mL | cfu/mL, contact time 7 day ([1]; 1000 ppm, Table 2): 2,600 cfu/mL | cfu/mL, contact time 14 day ([1]; 1000 ppm, Table 2): 1,200 cfu/mL | cfu/mL, contact time 21 day ([1]; 1000 ppm, Table 2): 300 cfu/mL | cfu/mL, contact time 28 day ([1]; 1000 ppm, Table 2): 200 cfu/mL | Log Red, contact time 1 day ([1]; 1000 ppm, Table 3): 3 | Log Red, contact time 3 day ([1]; 1000 ppm, Table 3): 2 | Log Red, contact time 7 day ([1]; 1000 ppm, Table 3): 2 | Log Red, contact time 14 day ([1]; 1000 ppm, Table 3): 3 | Log Red, contact time 21 day ([1]; 1000 ppm, Table 3): 2 | Log Red, contact time 28 day ([1]; 1000 ppm, Table 3): 2 | cfu/mL, contact time 1 day ([1]; 1000 ppm, Table 3): 100 cfu/mL | cfu/mL, contact time 3 day ([1]; 1000 ppm, Table 3): 100 cfu/mL | cfu/mL, contact time 7 day ([1]; 1000 ppm, Table 3): 100 cfu/mL | cfu/mL, contact time 14 day ([1]; 1000 ppm, Table 3): 100 cfu/mL | cfu/mL, contact time 21 day ([1]; 1000 ppm, Table 3): 100 cfu/mL | cfu/mL, contact time 28 day ([1]; 1000 ppm, Table 3): 100 cfu/mL | Log Red, 21 day Challenge ([2]; 500 ppm, Table 2): 3 | Log Red, 28 day Challenge ([2]; 500 ppm, Table 2): 4 | cfu/mL, 21 day Challenge ([2]; 500 ppm, Table 2): 39,000 cfu/mL | cfu/mL, 28 day Challenge ([2]; 500 ppm, Table 2): 3,400 cfu/mL | Log Red, 21 day Challenge ([2]; 500 ppm, Table 3): 5 | Log Red, 28 day Challenge ([2]; 500 ppm, Table 3): 5 | cfu/mL, 21 day Challenge ([2]; 500 ppm, Table 3): 100 cfu/mL | cfu/mL, 28 day Challenge ([2]; 500 ppm, Table 3): 100 cfu/mL | Log Red, 21 day Challenge ([2]; 1000 ppm, Table 2): 5 | Log Red, 28 day Challenge ([2]; 1000 ppm, Table 2): 4 | cfu/mL, 21 day Challenge ([2]; 1000 ppm, Table 2): 900 cfu/mL | cfu/mL, 28 day Challenge ([2]; 1000 ppm, Table 2): 1,500 cfu/mL | Log Red, 21 day Challenge ([2]; 1000 ppm, Table 3): 5 | Log Red, 28 day Challenge ([2]; 1000 ppm, Table 3): 5 | cfu/mL, 21 day Challenge ([2]; 1000 ppm, Table 3): 100 cfu/mL | cfu/mL, 28 day Challenge ([2]; 1000 ppm, Table 3): 100 cfu/mL | biocide effectiveness after inoculation, overall result of the studies ([2]; after inoculation): most effective biocides
